Data as given in patent US6583114B2, “Fracture healing using pthrp analogs” (Roche Palo Alto LLC, priority 1997, dated 2003).

Legend:
ulnar osteotomy = assay: Ulnar osteotomy model, corticosteroid induced delayed healing (Example 4); type: in vivo, rabbit
Description: Adult male New Zealand White rabbits were used in all experiments. In Part I, ten rabbits were divided into two equal groups and in Part II, twenty rabbits were divided equally. Non critical sized (1 mm) defects were created bilaterally in each rabbit. From two months prior to surgery through six weeks post-operative, all rabbits received daily subcutaneous injections of either prednisone (0.15 mg/kg) in sterile water (experimental group) or sterile saline (control group). Beginning on the first post-operative day, the experimental group were administered daily sub cutaneious infections of PTHrP analog D (0.01 mg/kg), while the control group received injections of normal saline. In Part I, animals were sacrificed at six weeks after creation of the osteotomy. In Part II, animals were sacrificed once radiographic union was reached bilaterally, or in cases of non-union at ten weeks post-operative. In both sets of experiments, radiological intensity and healing area were analyzed every other week starting two weeks (Part I) or four weeks (Part II) post-operatively. Serial radiographs of the forelimbs were taken and digitized and the bone area was quantified using image analysis software (Sigma Scan Pro). Photodensitometry was used to quantitate the mineral content of the newly formed bone at sites of osteotomy and callus formation. After sacrifice, high resolution faxitron radiographs were taken of both limbs in the anteroposterior and lateral planes, allowing for analysis of fracture callus dimension and size.

[1] = test system: intramembraneous bone defect; assay: Intramembraneous bone healing, drill hole defects in distal femur and proximal tibia (Example 3); type: in vivo, rabbit; settings: for intramembraneous bone formation relative to vehicle treated animals: 2 or 10 μg/kg/day subcutaneous daily; for femoral defects healed / tibial defects healed: day 21
Description: Rabbits were generally anesthesized and subjected to surgery to create four surface defects, one in each distal femur and one in each proximal tibia. A posterior lateral surgical incision measuring approximately 3 cm. was made to expose the distal lateral femoral condyle. Bone proximal to the knee joint was subperiosteally exposed and a 5 mm drill hole was made, keeping the drill bit cool by constant irrigation. The wound was irrigated with normal saline. Deep tissue was closed with a running 3-0 chronic suture followed by closure of the subticular layer with a running 3-0 nylon suture and three to four interrupted stainless steel sutures. A second 3 cm. incision was made over the medial proximal tibia and a 5 mm drill hole was made in the proximal medial tibia. The wound was closed as described previously. The entire procedure was repeated on the contralateral limb.
Stock solutions of PTHrP analog C, (MAP1-10)^22-31His^26hPTHrP(1-34)NH2, and PTHRP analog D, (MAP1-10)^22-31hPTHrP(1-34)NH2, at 800 μg/ml were prepared by sterile filtration through an 0.22 micron filter and diluted in vehicle to either 20 μg/ml or 100 μg/ml just before administration. Vehicle was 30 mg/ml mannitol, 30/mg/ml sucrose, 0.12 mg/ml Tween™ 80, 0.17 mg/ml acetic acid and 2.33 mg/ml sodium acetate trihydrate. PTHrP analogs at either 2 μg/kg/day or 10 μg/kg/day was administered daily by subcutaneous injection to the surgically treated animals.
Animals were X-rayed weekly for the duration of the study. Densitometric measurements were made using a transilluminating scanner and MetaMorph™ (Universal Imaging, West Chester, Pa.) software. Radiographs of the lower extremities were performed in internal and external rotation on post-operative day 10 and 21. The animals were sacrificed on post-operative day 30. At the end of the study, animals were euthanized by pentobarbital overdose, tissues were harvested from the left and right femurs and tibias were analyzed by x-ray and histological analysis.

segmental femoral defect = assay: Segmental femoral defect rat fracture model (Example 1); type: in vivo; settings: for bone healing and fracture repair, treated versus control animals: radiography, sacrifice at 6 weeks; for bone healing and fracture repair, treated versus control animals / bone growth in the defects (weekly radiographic density of segmented bone defect) relative to control: subcutaneous daily; for bone growth in the defects (weekly radiographic density of segmented bone defect) relative to control: FIG. 1, after four weeks of treatment; for radiographic density ratio of the segmented bone to the contralateral femur: FIG. 2, after six weeks of treatment, relative to control treated rats
Description: T. A. Einhorn et al. “The Healing of Segmented Bone Defects Induced by Demineralized Bone Matrix. A Radiographic and Biomechanical Study,” J. Bone Joint, 66:274-279 (1984.
Adult male Sprague-Dawley rats weighing about 300 grams were maintained on Laboratory Rodent Diet 5001 (PMI Feeds, St. Louis, Mo.) and water ad libitum. All rats received only water for 12 hours prior to surgery. The animals were anesthetized prior to surgery by IP injection with ketamine (80 mg/kg) and xylazine (5 mg/kg). A single dose of procaine penicillin was given intramuscularly for prophylaxis against infection.
A lateral approach to the femur was used and a pre-drilled high density polyethylene plate was fixed along the anterior cortex of the femur. During this placement the periosteum of the femur was extensively stripped. A […] non-critical sized segmental defect was created in the mid portion of the femur shaft. The wound was closed with nylon and chromic sutures.
Postoperatively, the rats were placed in cages with 48 hour post-operative access to food pellets. The animals were monitored at least once daily and animals displaying any signs of illness were examined and given appropriate therapy if necessary.
Rats were divided into groups as shown in Table 1 and either a control vehicle (saline) or a PTHrP analog as described herein was administered subcutaneously daily starting on post-operative day 1. Radiographic analyses were performed weekly. Animals were sacrificed at 6 weeks and compared by radiography.
Sedated rats were placed in the prone position with hindlimbs externally rotated. Serial radiographs of each femur (involved femur and contralateral femur) were taken weekly starting with postoperative week 1. An aluminium phantom device with known density values was included in each radiograph for calibration. Each radiograph was placed on a translumination board and a picture taken using a DCS 420 digital Kodak camera. These images were then transferred to a Gateway 2000 IBM compatible computer and digitized using image analysis software (Sigma Scan©). An outline of the defect was traced and the average density of the area of the osteotomy measured in treated animals relative to control animals. […] The average density of the osteotomy was also compared to the average density of the contralateral femur for each weekly reading. […] After sacrifice (6 weeks), the femurs (experimental and contralateral) were dissected free of soft tissue. Fine grain radiographs were taken of the femurs in the lateral plane. The osteotomy was considered united when there was osseous continuity of the femur across more than 25% of the cross sectional diameter of the defect.

fracture healing = settings: intermittent treatment; ovariectomized rats; Kim et al.; cited from earlier work
[2] = high dose group (10 μg/kg/day s.c.)
[3] = low dose group (2 μg/kg/day s.c.), no complete healing in controls

With “(MAP1-10)^22-31hPTHrP(1-34)NH2 [PTHrP analog D]” the “torsional strength (stiffness and maximum torque) versus vehicle-treated control limbs” value (ulnar osteotomy; Part I, biomechanical) was “significantly greater”, the “intensities at the osteotomy sites, anteroposterior and lateral faxitrons, treated versus control limbs” value (ulnar osteotomy; Part I, six weeks) was “significantly greater” and the “intensity of proximal and distal ulnar diaphyses, treated versus control limbs” value (ulnar osteotomy; Part I, six weeks) was “significantly greater”. For the same molecule, the “intensity of the external calluses (lateral), treated versus control limbs” value (ulnar osteotomy; Part I, six weeks) was “also greater”, the “limbs that achieved union” value (ulnar osteotomy; Part I, six weeks, 0.01 mg/kg daily s.c., prednisone, two out of ten in vehicle controls, FIG. 5) was “Nine out ten” and the “area of the osteotomy versus vehicle control limbs” value (ulnar osteotomy; Part II, after sacrifice) was “significantly smaller”. The “radiographic intensity at the osteotomy site, ulnar diaphysis and callus area versus vehicle control limbs” value (ulnar osteotomy; Part II, after sacrifice, p<0.05 at osteotomy site) was “greater radiographic intensity”, the “radiographic intensity at the osteotomy site, external calluses and ulnar diaphyses versus control limbs” value (ulnar osteotomy; Part II, four weeks, p<0.01 at osteotomy site) was “greater radiographic intensity” and the “combined callus areas versus control limbs” value (ulnar osteotomy; Part II, four weeks, p<0.05) was “greater”. For the same molecule, the “callus intensity or area versus control limbs” value (ulnar osteotomy; Part II, six weeks) was “no differences”, the “intensity at the osteotomy site versus control limbs, in vivo radiography” value (ulnar osteotomy; Part II, six weeks) was “trend of increased intensity” and the union rate (ulnar osteotomy; Part II, six weeks, radiographic union) was “complete union rate”. The “intramembraneous bone formation relative to vehicle treated animals” value [1] was “accelerated intramembraneous bone formation”, the “tibial defects filled with mineralized tissue” value ([1]; at sacrifice (day 30), high dose, radiographic analysis, p<0.01 vs control (less than 10%)) was “over 85%” and the “percent fill of femoral defects versus control treated femoral defects” value ([1]; at sacrifice, p<0.01) was “significant greater percent fill”. It also gave a femoral defects healed [1, 2] of 50%, a tibial defects healed [1, 2] of 75% and a femoral defects healed [1, 3] of 40%. It also gave a tibial defects healed [1, 3] of 40%.

For “(MAP1-10)^22-31c[Lys^13, Asp^17]hPTHrP(1-34)NH2”, the “bone healing and fracture repair, treated versus control animals” value (segmental femoral defect) was “accelerated bone healing and fracture repair”.

For “(MAP1-10)^22-31hSer^34PTHrP(1-34)THIQ NH2”, the “bone healing and fracture repair, treated versus control animals” value (segmental femoral defect) was “accelerated bone healing and fracture repair”.

With “(MAP1-10)^22-31Ala^19hPTHrP(1-34)NH2 [PTHrP analog B]” the “bone growth in the defects (weekly radiographic density of segmented bone defect) relative to control” value (segmental femoral defect) was “greater than in the control animals” and the “radiographic density ratio of the segmented bone to the contralateral femur” value (segmental femoral defect) was “increased bone density”.

For “(MAP1-10)^22-31His^26hPTHrP(1-34)NH2 [PTHrP analog C]”, the “bone growth in the defects (weekly radiographic density of segmented bone defect) relative to control” value (segmental femoral defect) was “greater than in the control animals”, the “radiographic density ratio of the segmented bone to the contralateral femur” value (segmental femoral defect) was “increased bone density” and the “union of the defect in high resolution radiographs” value (segmental femoral defect; FIG. 3, after treatment for six weeks, control defect remains non-united) was “has healed”. For the same molecule, the “intramembraneous bone formation relative to vehicle treated animals” value [1] was “accelerated intramembraneous bone formation”.

B1: parathyroid hormone (protein, UniProt P01270 32-115, looked up)
Parathyroid hormone: SVSEIQLMHNLGKHLNSMERVEWLRKKLQDVHNFVALGAPLAPRDAGSQRPRKKEDNVLVESHEKSLGEADKADVNVLTKAKSQ
modifications: Parathyroid hormone recombinant
notes: Recombinant human (1-84) parathyroid hormone, per the cited Kim et al. titles
For B1, the fracture healing (fracture healing) is given as “improves fracture healing”.
